Source: PubChem BioAssay (NCI)
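Test compounds were applied to cells in 96-well plates for 48 hours at 5 doses. GI50: concentration for 50% inhibition of growth. TGI marks complete inhibition of growth.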

Columns and labels:
Assay in all cases: inhibition of tumour cell growth, NCI panel, 48 h
[1] = system: CAKI-1 renal
[2] = system: A549 NSCLC
[3] = system: HCT-15 colon
[4] = system: CCRF-CEM leukemia
[5] = system: NCI-H226 lung
[6] = system: BT-549 breast
[7] = system: MOLT-4 leukemia
[8] = system: K-562 leukemia
[9] = system: NCI-H23 lung
[10] = system: SF-539 CNS
[11] = system: EKVX NSCLC
[12] = system: HT29 colon
[13] = system: RXF 393 renal
[14] = system: SN12C renal
[15] = system: UACC-62 melanoma
[16] = system: SW-620 colon
[17] = system: SR leukemia
[18] = system: T-47D breast
[19] = system: OVCAR-5 ovarian
[20] = system: OVCAR-4 ovarian
[21] = system: OVCAR-8 ovarian
[22] = system: 786-0 renal
[23] = system: A498 renal
[24] = system: SK-MEL-5 melanoma
[25] = system: KM12 colon
[26] = system: COLO 205 colon
[27] = system: MDA-MB-231 breast
[28] = system: HS 578T breast
[29] = system: MALME-3M melanoma
[30] = system: HCT-116 colon
[31] = system: SK-MEL-28 melanoma
[32] = system: HCC-2998 colon
[33] = system: NCI/ADR-RES ovarian
[34] = system: LOX IMVI melanoma
[35] = system: NCI-H522 lung
[36] = system: OVCAR-3 ovarian
[37] = system: HL-60(TB) leukemia
[38] = system: HOP-62 NSCLC
[39] = system: UACC-257 melanoma
[40] = system: PC-3 prostate
[41] = system: IGROV1 ovarian
[42] = system: SNB-75 CNS
[43] = system: SF-268 CNS
[44] = system: HOP-92 NSCLC
[45] = system: NCI-H460 lung
[46] = system: RPMI-8226 leukemia
[47] = system: UO-31 renal
[48] = system: SK-OV-3 ovarian
[49] = system: ACHN renal
[50] = system: TK-10 renal
[51] = system: SK-MEL-2 melanoma
[52] = system: DU-145 prostate
[53] = system: SNB-19 CNS
[54] = system: SF-295 CNS
[55] = system: MDA-MB-435
[56] = system: M14 melanoma
[57] = system: MCF7 breast
[58] = system: U251 CNS

Structure (SMILES): O=C(Nc1ccc(-c2nc(-c3cccc(O)c3)c(-c3ccnc(Br)c3)[nH]2)cc1)c1ccccc1
- GI50 [1]: 1980 nM
- TGI [1]: 5800 nM
- GI50 [2]: 2950 nM
- TGI [2]: > 100000 nM
- GI50 [3]: 2010 nM
- TGI [3]: 7290 nM
- GI50 [4]: 1320 nM
- TGI [4]: > 100000 nM
- GI50 [5]: 2330 nM
- TGI [5]: 6530 nM
- GI50 [6]: 1800 nM
- TGI [6]: 5790 nM
- GI50 [7]: 2000 nM
- TGI [7]: 7480 nM
- GI50 [8]: 2120 nM
- TGI [8]: > 100000 nM
- GI50 [9]: 2040 nM
- TGI [9]: 4780 nM
- GI50 [10]: 1510 nM
- TGI [10]: 4780 nM
- GI50 [11]: 2140 nM
- TGI [11]: 6190 nM
- GI50 [12]: 2850 nM
- TGI [12]: > 100000 nM
- GI50 [13]: 294 nM
- TGI [13]: 869 nM
- GI50 [14]: 2680 nM
- TGI [14]: 8950 nM
- GI50 [15]: 1730 nM
- TGI [15]: 4090 nM
- GI50 [16]: 2370 nM
- TGI [16]: 7170 nM
- GI50 [17]: 1260 nM
- TGI [17]: > 100000 nM
- GI50 [18]: 1730 nM
- TGI [18]: 4730 nM
- GI50 [19]: 2920 nM
- TGI [19]: 19100 nM
- GI50 [20]: 2270 nM
- TGI [20]: 6090 nM
- GI50 [21]: 2600 nM
- TGI [21]: > 100000 nM
- GI50 [22]: 1080 nM
- TGI [22]: 4030 nM
- GI50 [23]: 1660 nM
- TGI [23]: 4530 nM
- GI50 [24]: 1790 nM
- TGI [24]: 3230 nM
- GI50 [25]: 2440 nM
- TGI [25]: 7130 nM
- GI50 [26]: 1990 nM
- TGI [26]: 4840 nM
- GI50 [27]: 2590 nM
- TGI [27]: 17100 nM
- GI50 [28]: 308 nM
- TGI [28]: 946 nM
- GI50 [29]: 1830 nM
- TGI [29]: 4710 nM
- GI50 [30]: 2260 nM
- TGI [30]: 7600 nM
- GI50 [31]: 1760 nM
- TGI [31]: 4820 nM
- GI50 [32]: 2270 nM
- TGI [32]: 6370 nM
- GI50 [33]: 3000 nM
- TGI [33]: 12400 nM
- GI50 [34]: 1520 nM
- TGI [34]: 3950 nM
- GI50 [35]: 2010 nM
- TGI [35]: 5350 nM
- GI50 [36]: 2090 nM
- TGI [36]: 5670 nM
- GI50 [37]: 1370 nM
- TGI [37]: 6820 nM
- GI50 [38]: 2540 nM
- TGI [38]: 9050 nM
- GI50 [39]: 2210 nM
- TGI [39]: 5840 nM
- GI50 [40]: 1900 nM
- TGI [40]: 5840 nM
- GI50 [41]: 2620 nM
- TGI [41]: 6530 nM
- GI50 [42]: 286 nM
- TGI [42]: 3370 nM
- GI50 [43]: 2210 nM
- TGI [43]: 6950 nM
- GI50 [44]: 1840 nM
- TGI [44]: 4730 nM
- GI50 [45]: 2450 nM
- TGI [45]: 6520 nM
- GI50 [46]: 595 nM
- TGI [46]: 2890 nM
- GI50 [47]: 2560 nM
- TGI [47]: 6560 nM
- GI50 [48]: 2680 nM
- TGI [48]: 7090 nM
- GI50 [49]: 2430 nM
- TGI [49]: 7420 nM
- GI50 [50]: 2920 nM
- TGI [50]: 8030 nM
- GI50 [51]: 2020 nM
- TGI [51]: 5460 nM
- GI50 [52]: 2760 nM
- TGI [52]: 8740 nM
- GI50 [53]: 1830 nM
- TGI [53]: 7140 nM
- GI50 [54]: 340 nM
- TGI [54]: 1160 nM

Structure (SMILES): N#Cc1c(-c2ccc(Cl)cc2)nc(SCc2ccccc2)nc1N1CCNCC1
- GI50 [1]: 1480 nM
- TGI [1]: 2810 nM
- GI50 [2]: 1550 nM
- TGI [2]: 2990 nM
- GI50 [3]: 1600 nM
- TGI [3]: 3020 nM
- GI50 [4]: 1970 nM
- TGI [4]: 4510 nM
- GI50 [55]: 1700 nM
- TGI [55]: 3100 nM
- GI50 [5]: 1840 nM
- TGI [5]: 3530 nM
- GI50 [6]: 1690 nM
- TGI [6]: 3140 nM
- GI50 [7]: 1600 nM
- TGI [7]: 3690 nM
- GI50 [8]: 1770 nM
- TGI [8]: 5810 nM
- GI50 [10]: 1780 nM
- TGI [10]: 3200 nM
- GI50 [11]: 1520 nM
- TGI [11]: 2890 nM
- GI50 [12]: 1650 nM
- TGI [12]: 3020 nM
- GI50 [13]: 1580 nM
- TGI [13]: 3020 nM
- GI50 [14]: 1770 nM
- TGI [14]: 3270 nM
- GI50 [15]: 1770 nM
- TGI [15]: 3210 nM
- GI50 [16]: 1690 nM
- TGI [16]: 3220 nM
- GI50 [18]: 1650 nM
- TGI [18]: 3260 nM
- GI50 [19]: 1640 nM
- TGI [19]: 3020 nM
- GI50 [56]: 1650 nM
- TGI [56]: 3080 nM
- GI50 [20]: 1640 nM
- TGI [20]: 3080 nM
- GI50 [57]: 1590 nM
- TGI [57]: 3200 nM
- GI50 [21]: 1630 nM
- TGI [21]: 3030 nM
- GI50 [22]: 1420 nM
- TGI [22]: 2960 nM
- GI50 [23]: 1690 nM
- TGI [23]: 3370 nM
- GI50 [24]: 1760 nM
- TGI [24]: 3140 nM
- GI50 [25]: 1770 nM
- TGI [25]: 3290 nM
- GI50 [26]: 1650 nM
- TGI [26]: 3040 nM
- GI50 [27]: 1730 nM
- TGI [27]: 3370 nM
- GI50 [28]: 1890 nM
- TGI [28]: 4200 nM
- GI50 [29]: 1710 nM
- TGI [29]: 3320 nM
- GI50 [30]: 1640 nM
- TGI [30]: 3120 nM
- GI50 [31]: 1780 nM
- TGI [31]: 3190 nM
- GI50 [32]: 1600 nM
- TGI [32]: 3030 nM
- GI50 [33]: 1600 nM
- TGI [33]: 3180 nM
- GI50 [34]: 2050 nM
- TGI [34]: 3550 nM
- GI50 [35]: 1500 nM
- TGI [35]: 2900 nM
- GI50 [36]: 1730 nM
- TGI [36]: 3180 nM
- GI50 [37]: 1440 nM
- TGI [37]: 3710 nM
- GI50 [38]: 1750 nM
- TGI [38]: 3400 nM
- GI50 [58]: 1580 nM
- TGI [58]: 2940 nM
- GI50 [39]: 1550 nM
- TGI [39]: 2960 nM
- GI50 [40]: 1610 nM
- TGI [40]: 3080 nM
- GI50 [41]: 1610 nM
- TGI [41]: 3060 nM
- GI50 [42]: 1330 nM
- TGI [42]: 2680 nM
- GI50 [43]: 1620 nM
- TGI [43]: 3200 nM
- GI50 [44]: 1060 nM
- TGI [44]: 2390 nM
- GI50 [45]: 1720 nM
- TGI [45]: 3190 nM
- GI50 [46]: 1900 nM
- TGI [46]: 4490 nM
- GI50 [47]: 1350 nM
- TGI [47]: 2640 nM
- GI50 [48]: 1870 nM
- TGI [48]: 3570 nM
- GI50 [49]: 1670 nM
- TGI [49]: 3040 nM
- GI50 [50]: 1510 nM
- TGI [50]: 2890 nM
- GI50 [51]: 1600 nM
- TGI [51]: 3020 nM
- GI50 [52]: 1700 nM
- TGI [52]: 3070 nM
- GI50 [53]: 1610 nM
- TGI [53]: 3080 nM
- GI50 [54]: 1750 nM
- TGI [54]: 3160 nM
